What is called EC50 is the concentration giving half of the maximal effect.

One experiment concerns the target T1, PPARα-LBD (Homo sapiens, UniProt Q07869).
T1 sequence (Q07869 200-468): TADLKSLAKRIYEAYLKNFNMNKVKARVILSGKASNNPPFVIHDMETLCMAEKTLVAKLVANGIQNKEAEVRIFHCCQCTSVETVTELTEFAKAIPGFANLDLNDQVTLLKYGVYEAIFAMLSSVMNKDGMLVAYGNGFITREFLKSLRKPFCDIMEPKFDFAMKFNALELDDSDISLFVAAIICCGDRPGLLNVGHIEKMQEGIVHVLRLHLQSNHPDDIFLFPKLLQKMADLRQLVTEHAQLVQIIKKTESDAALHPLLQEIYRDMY
The experiment can be described thus: TR-FRET PGC1α coactivator recruitment assay. The following applies: PGC1α peptide, read-out: EC50, PGC1α recruitment to PPARα-LBD. Also noted: Human PPARα-LBD (amino acids 200–468); made in house; host or cells: Rosetta (DE3) pLysS (E. coli). The experiment is classed as biochemical. How it is done:
(§1) Subsequently, 5 µL of 4 nM Eu-W1024-labeled anti-6×His antibody/80 nM ULight-Streptavidin (PerkinElmer) was added to each well, and the microplate was incubated in the dark for 2 h, at room temperature. […] The nonlinear fitting and the calculation of the EC50 were performed using the Prism 9 software (GraphPad, San Diego, CA, USA).
(§2) The ligand-bound activated forms of PPARs are stabilized by associations with specific coactivators, thereby enabling the regulation of specific gene expression.
(§3) Figure 2 TR-FRET-based LBD-mediated human PPARα/δ/γ coactivator recruitment assay. […] Data are presented as the mean ± SE of three or four independent experiments with duplicate samples, and the calculated EC50 values are shown.
Background: Time-resolved FRET reads energy transfer from a long-lived donor to a nearby acceptor.

For experiment [1], the target named is T2, PPARδ-LBD (Homo sapiens, UniProt Q03181).
T2 sequence (Q03181 170-441): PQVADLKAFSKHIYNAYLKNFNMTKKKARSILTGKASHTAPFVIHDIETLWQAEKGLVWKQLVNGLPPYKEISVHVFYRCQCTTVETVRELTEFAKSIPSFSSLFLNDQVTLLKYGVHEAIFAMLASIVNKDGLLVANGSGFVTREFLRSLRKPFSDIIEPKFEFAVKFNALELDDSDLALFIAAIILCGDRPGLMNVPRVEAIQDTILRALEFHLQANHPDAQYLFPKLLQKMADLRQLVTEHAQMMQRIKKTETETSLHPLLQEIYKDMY
The experiment can be described thus: Thermal stability assay using circular dichroism spectroscopy. Also noted: PPARδ-LBD (amino acids 170–441); His tag (pET28a) (N); made in house; host or cells: Rosetta (DE3) pLysS (E. coli). The experiment is classed as binding. The following applies: CD at 222 nm; 10 µM LBD; GW501516 at 50 µM. How it is done:
(§4) PPARα/δ/γ-LBD proteins (10 µM) were incubated with different concentrations of ligands in buffer C consisting of 20 mM Tris-HCl (pH 8.0), 150 mM NaCl, 1 mM Tris 2-carboxyethylphosphine (TCEP)-HCl, and 10% glycerol. The circular dichroism (CD) spectra were monitored within a 200–260 nm range at increasing temperatures from 30 °C to 70 °C (2 °C/min) using a J-1500 spectropolarimeter equipped with a PTC-510 thermal controller (JASCO, Tokyo, Japan). […] The ligand-induced increases in the Tm values were defined as ∆Tm.
(§5) Nuclear receptors, including PPARs, display an increased thermal stability upon ligand binding, which is detectable through CD spectroscopy.
(§6) Figure 3 Circular dichroism-based PPARα/δ/γ-LBD thermal stability assay. […] Data are presented as the mean ± SE of three or four (in parentheses) independent experiments. Differences vs. basal levels (with 0.1% DMSO) were statistically assessed by one-way ANOVA, followed by a Dunnett’s post hoc test: * p < 0.05, ** p < 0.01, and *** p < 0.001.

For another experiment, the target named is T3, PPARγ-LBD (Homo sapiens, UniProt P37231).
T3 sequence (P37231 203-477 isoform P37231-2): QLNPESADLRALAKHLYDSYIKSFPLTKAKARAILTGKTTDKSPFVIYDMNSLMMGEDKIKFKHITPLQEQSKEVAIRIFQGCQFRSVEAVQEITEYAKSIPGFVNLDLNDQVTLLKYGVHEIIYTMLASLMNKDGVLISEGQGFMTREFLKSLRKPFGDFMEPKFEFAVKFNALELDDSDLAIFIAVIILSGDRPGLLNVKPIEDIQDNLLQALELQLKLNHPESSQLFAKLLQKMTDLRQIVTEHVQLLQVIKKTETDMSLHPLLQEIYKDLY
Described as above. The experiment is classed as binding. Also noted: PPARγ-LBD (amino acids 203–477 in isoform 1); His tag (pET28a) (N); made in house; host or cells: Rosetta (DE3) pLysS (E. coli). The following applies: CD at 222 nm, 10 µM LBD; for Effect on Tm of PPARγ-LBD (in words): GW1929 at 10 µM. How it is done:
as §4, §5, §6

For experiment [2], the target named is T2, PPARδ-LBD. The experiment is described as follows: TR-FRET SRC1 coactivator recruitment assay. The experiment is classed as biochemical. Also noted: PPARδ-LBD (amino acids 170–441); made in house; host or cells: Rosetta (DE3) pLysS (E. coli). The conditions noted are these: for EC50: TR-FRET, SRC1 peptide, read-out: EC50, SRC1 recruitment to PPARδ-LBD. Here is the method: as §1, §2, §3

As to `CSc1ccc(C(=O)/C=C/c2cc(C)c(OC(C)(C)C(=O)O)c(C)c2)cc1` [elafibranor], the EC50 on PPARα-LBD came to 6.93 µM. Besides, the “Effect on Tm of PPARδ-LBD (in words)” value at PPARδ-LBD [1] is reported as “did not significantly alter the Tm values”. For the same compound, on PPARγ-LBD, the “Effect on Tm of PPARγ-LBD (in words)” value was “did not significantly alter the Tm values”.

With `O=C(O)CCCc1cc2cc(Cl)ccc2n1S(=O)(=O)c1ccc2ncsc2c1` [lanifibranor], the half-maximal effective concentration (EC50) is 4.44 µM at PPARδ-LBD [2] and 10 µM on PPARα-LBD. At PPARδ-LBD [1], the “Effect on Tm of PPARδ-LBD (in words)” value was “increased the Tm values”. The “Relative ∆Tm response, PPARγ-LBD (highest value)” value at PPARγ-LBD (100% = ∆Tm by 10 µM GW1929) is listed as 61.4%. The “Effect on Tm of PPARγ-LBD (in words)” value at PPARγ-LBD is on record as “increased the Tm values”.

For the compound `CCO[C@@H](Cc1ccc(OCCn2c(C)ccc2-c2ccc(SC)cc2)cc1)C(=O)O` [saroglitazar], the EC50 was greater than 100 µM on PPARδ-LBD [2] and 4.11 µM on PPARα-LBD. In addition, the “Effect on Tm of PPARδ-LBD (in words)” value on PPARδ-LBD [1] is “highly increased the Tm values”. For the same compound, the “Effect on Tm of PPARγ-LBD (in words)” value on PPARγ-LBD is “highly increased the Tm values”.

As for `CCO[C@H](COc1ccc(C(F)(F)F)cc1)CSc1ccc(OCC(=O)O)c(C)c1` [seladelpar], the “Efficacy, SRC1 recruitment to PPARδ-LBD” value on PPARδ-LBD [2] (100% = 1 µM GW501516) is listed as 83.0%. Besides, the EC50 came out at 0.111 µM on PPARδ-LBD [2] and 3.84 µM at PPARα-LBD. In addition, at PPARδ-LBD [1], the “Effect on Tm of PPARδ-LBD (in words)” value is recorded as “increased the Tm values”. For the same compound, the “Effect on Tm of PPARγ-LBD (in words)” value at PPARγ-LBD is “increased the Tm values”.

(Values after publication PMC10451623 (Antioxidants, 2023).)
